Reference: PubChem BioAssay AID1845201 (Molecular Pharmacology Branch, DTP, NCI, 2023)

Tested on: COR L88 complex tumor spheroid viability
Test: Anticancer human tumor COR L88 cell line growth inhibition;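 note: compound exposure lasted 7 days before viability readout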;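 for viability, T/C: percent of DMSO vehicle-treated spheroids = 100%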
Details: for IC50: curve of first compound; for viability, T/C: stronger effect = lower value; active = viability on the fitted dose curve at most 10% of control; inactive = the rest
Method in brief: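 Complex spheroids of malignant cells with endothelial cells and mesenchymal stem cells; agents alone or combined, from near clinical Cmax (or 10 microM if unknown) down in half-log steps, 0.25% DMSO final.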

Cc1cc(C)c(CNC(=O)c2cc(-c3ccc(CN4CCOCC4)cc3)cc3c2cnn3C2CCCC2)c(=O)[nH]1 + Cn1nnc2c(C(N)=O)ncn2c1=O
8540 nM: IC50 (second compound 31.6 µM)
3350 nM: IC50 (second compound 100 µM)
inactive: viability, T/C (second compound 1 µM, first compound 0.0316 µM) 102% | viability, T/C (second compound 1 µM, first compound 0.1 µM) 97% | viability, T/C (second compound 1 µM, first compound 0.316 µM) 93% | viability, T/C (second compound 1 µM, first compound 1 µM) 86.1% | viability, T/C (second compound 1 µM, first compound 3.16 µM) 76.8% | viability, T/C (second compound 1 µM, first compound 10 µM) 53.3% | viability, T/C (second compound 3.16 µM, first compound 0.0316 µM) 101% | viability, T/C (second compound 3.16 µM, first compound 0.1 µM) 99.5% | viability, T/C (second compound 3.16 µM, first compound 0.316 µM) 88.5% | viability, T/C (second compound 3.16 µM, first compound 1 µM) 83.2% | viability, T/C (second compound 3.16 µM, first compound 3.16 µM) 72% | viability, T/C (second compound 3.16 µM, first compound 10 µM) 56.5% | viability, T/C (second compound 10 µM, first compound 0.0316 µM) 90.7% | viability, T/C (second compound 10 µM, first compound 0.1 µM) 86.4% | viability, T/C (second compound 10 µM, first compound 0.316 µM) 88.5% | viability, T/C (second compound 10 µM, first compound 1 µM) 75.2% | viability, T/C (second compound 10 µM, first compound 3.16 µM) 69.8% | viability, T/C (second compound 10 µM, first compound 10 µM) 51.3% | viability, T/C (second compound 31.6 µM, first compound 0.0316 µM) 86.7% | viability, T/C (second compound 31.6 µM, first compound 0.1 µM) 79.1% | viability, T/C (second compound 31.6 µM, first compound 0.316 µM) 78% | viability, T/C (second compound 31.6 µM, first compound 1 µM) 69% | viability, T/C (second compound 31.6 µM, first compound 3.16 µM) 56.1% | viability, T/C (second compound 31.6 µM, first compound 10 µM) 49.7% | viability, T/C (second compound 100 µM, first compound 0.0316 µM) 68.7% | viability, T/C (second compound 100 µM, first compound 0.1 µM) 62.7% | viability, T/C (second compound 100 µM, first compound 0.316 µM) 63% | viability, T/C (second compound 100 µM, first compound 1 µM) 52.7% | viability, T/C (second compound 100 µM, first compound 3.16 µM) 49.1% | viability, T/C (second compound 100 µM, first compound 10 µM) 47%
> 10000 nM: IC50 (second compound 1 µM) | IC50 (second compound 3.16 µM) | IC50 (second compound 10 µM)

Cc1sc2c(c1C)C(c1ccc(Cl)cc1)=NC(CC(=O)Nc1ccc(O)cc1)c1nnc(C)n1-2 (stereo not given) + Cn1nnc2c(C(N)=O)ncn2c1=O
610 nM: IC50 (second compound 10 µM)
499 nM: IC50 (second compound 1 µM)
624 nM: IC50 (second compound 3.16 µM)
785 nM: IC50 (second compound 31.6 µM)
880 nM: IC50 (second compound 100 µM)
inactive: viability, T/C (second compound 1 µM, first compound 0.00949 µM) 86.5% | viability, T/C (second compound 1 µM, first compound 0.03 µM) 94% | viability, T/C (second compound 1 µM, first compound 0.0949 µM) 97.9% | viability, T/C (second compound 1 µM, first compound 0.3 µM) 63.2% | viability, T/C (second compound 1 µM, first compound 0.949 µM) 34.8% | viability, T/C (second compound 1 µM, first compound 3 µM) 22.4% | viability, T/C (second compound 3.16 µM, first compound 0.00949 µM) 98.8% | viability, T/C (second compound 3.16 µM, first compound 0.03 µM) 96.5% | viability, T/C (second compound 3.16 µM, first compound 0.0949 µM) 100% | viability, T/C (second compound 3.16 µM, first compound 0.3 µM) 70.6% | viability, T/C (second compound 3.16 µM, first compound 0.949 µM) 38.6% | viability, T/C (second compound 3.16 µM, first compound 3 µM) 21.5% | viability, T/C (second compound 10 µM, first compound 0.00949 µM) 88.1% | viability, T/C (second compound 10 µM, first compound 0.03 µM) 94.1% | viability, T/C (second compound 10 µM, first compound 0.0949 µM) 103% | viability, T/C (second compound 10 µM, first compound 0.3 µM) 64.7% | viability, T/C (second compound 10 µM, first compound 0.949 µM) 41.2% | viability, T/C (second compound 10 µM, first compound 3 µM) 18.8% | viability, T/C (second compound 31.6 µM, first compound 0.00949 µM) 89% | viability, T/C (second compound 31.6 µM, first compound 0.03 µM) 101% | viability, T/C (second compound 31.6 µM, first compound 0.0949 µM) 104% | viability, T/C (second compound 31.6 µM, first compound 0.3 µM) 87.7% | viability, T/C (second compound 31.6 µM, first compound 0.949 µM) 42.7% | viability, T/C (second compound 31.6 µM, first compound 3 µM) 23.8% | viability, T/C (second compound 100 µM, first compound 0.00949 µM) 78.4% | viability, T/C (second compound 100 µM, first compound 0.03 µM) 85.4% | viability, T/C (second compound 100 µM, first compound 0.0949 µM) 92.2% | viability, T/C (second compound 100 µM, first compound 0.3 µM) 88.1% | viability, T/C (second compound 100 µM, first compound 0.949 µM) 47.4% | viability, T/C (second compound 100 µM, first compound 3 µM) 28.2%

Cc1sc2c(c1C)C(c1ccc(Cl)cc1)=NC(CC(=O)Nc1ccc(O)cc1)c1nnc(C)n1-2 (stereo not given) + CC[C@@]1(O)C(=O)OCc2c1cc1n(c2=O)Cc2cc3c(CN(C)C)c(O)ccc3nc2-1
70.9 nM: IC50 (second compound 0.3 µM)
inactive: viability, T/C (second compound 0.003 µM, first compound 0.00949 µM) 107% | viability, T/C (second compound 0.003 µM, first compound 0.03 µM) 82.7% | viability, T/C (second compound 0.003 µM, first compound 0.0949 µM) 100% | viability, T/C (second compound 0.003 µM, first compound 0.3 µM) 59.9% | viability, T/C (second compound 0.003 µM, first compound 0.949 µM) 23.6% | viability, T/C (second compound 0.003 µM, first compound 3 µM) 15.1% | viability, T/C (second compound 0.00949 µM, first compound 0.00949 µM) 81.8% | viability, T/C (second compound 0.00949 µM, first compound 0.03 µM) 92.6% | viability, T/C (second compound 0.00949 µM, first compound 0.0949 µM) 104% | viability, T/C (second compound 0.00949 µM, first compound 0.3 µM) 64.2% | viability, T/C (second compound 0.00949 µM, first compound 0.949 µM) 23.7% | viability, T/C (second compound 0.00949 µM, first compound 3 µM) 13.3% | viability, T/C (second compound 0.03 µM, first compound 0.00949 µM) 71.2% | viability, T/C (second compound 0.03 µM, first compound 0.03 µM) 88.7% | viability, T/C (second compound 0.03 µM, first compound 0.0949 µM) 106% | viability, T/C (second compound 0.03 µM, first compound 0.3 µM) 73% | viability, T/C (second compound 0.03 µM, first compound 0.949 µM) 25.3% | viability, T/C (second compound 0.0949 µM, first compound 0.00949 µM) 66.6% | viability, T/C (second compound 0.0949 µM, first compound 0.03 µM) 76.2% | viability, T/C (second compound 0.0949 µM, first compound 0.0949 µM) 85.2% | viability, T/C (second compound 0.0949 µM, first compound 0.3 µM) 31.2% | viability, T/C (second compound 0.3 µM, first compound 0.00949 µM) 53.1% | viability, T/C (second compound 0.3 µM, first compound 0.03 µM) 60.9% | viability, T/C (second compound 0.3 µM, first compound 0.0949 µM) 47.4%
185 nM: IC50 (second compound 0.0949 µM)
531 nM: IC50 (second compound 0.03 µM)
441 nM: IC50 (second compound 0.00949 µM)
active: viability, T/C (second compound 0.03 µM, first compound 3 µM) 8.57% | viability, T/C (second compound 0.0949 µM, first compound 0.949 µM) 7.66% | viability, T/C (second compound 0.0949 µM, first compound 3 µM) 5.05% | viability, T/C (second compound 0.3 µM, first compound 0.3 µM) 9.5% | viability, T/C (second compound 0.3 µM, first compound 0.949 µM) 3.88% | viability, T/C (second compound 0.3 µM, first compound 3 µM) 2.4%
406 nM: IC50 (second compound 0.003 µM)
